Source: PubChem BioAssay (NCI)
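Growth conditions: 96-well plates. Treatment: test compound, 48 hours, 5 concentrations. Analysis: linear interpolation between bracketing concentrations; unreached endpoints set to highest concentration. At the GI50, growth is halved. TGI: total growth inhibition.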

Experiments:
Assay in all cases: NCI-60 cell line screen, 48 h
[1] = test system: 786-0 renal
[2] = test system: HCC-2998 colon
[3] = test system: PC-3 prostate
[4] = test system: HCT-15 colon
[5] = test system: OVCAR-4 ovarian
[6] = test system: EKVX NSCLC
[7] = test system: SK-MEL-5 melanoma
[8] = test system: DU-145 prostate
[9] = test system: SK-OV-3 ovarian
[10] = test system: CAKI-1 renal

c1ccc2c(c1)c1c(n2CCOCCN2CCCCC2)CCCC1 gave a TGI [1] of 26.4 µM, a TGI [2] of 23.6 µM and a TGI [3] of 22.2 µM. The TGI [4] was 27.7 µM, the TGI [5] was 25.3 µM and the TGI [6] was 32.8 µM. The TGI [7] was 21.1 µM, the TGI [8] was 32.6 µM and the TGI [9] was 34.9 µM.

N#CCCNCCN(CCN(C(=O)Nc1ccccc1)c1ccccc1)C(=O)Nc1ccccc1 gave a TGI [1] of over 100 µM, a TGI [2] of 36 µM and a TGI [3] of over 100 µM. For the same compound, the TGI [4] was over 100 µM, the TGI [6] was over 100 µM and the TGI [7] was 45 µM. It also gave a TGI [8] of over 100 µM and a TGI [9] of over 100 µM.

O=C1NN=C(c2ccc(Cl)cc2)CC1C1C(=O)N(c2ccccc2)N=C1c1ccccc1 (configuration not stated) was tested, and the TGI [1] was 63.2 µM, the TGI [2] was 91.7 µM and the TGI [3] was 72.3 µM. It also gave a TGI [4] of over 100 µM, a TGI [5] of 86.5 µM and a TGI [6] of over 100 µM. The TGI [8] was over 100 µM and the TGI [9] was over 100 µM.

For COC12C=C/C(=C(/C(=O)OCc3ccncn3)C(=O)CCCCCCCCC3(OC)C=C/C(=C(/C(=O)OCc4ccncn4)C(=O)CCCCCCCC1)O3)O2, the GI50 [2] was 0.225 µM, the TGI [2] was 0.45 µM and the GI50 [3] was 0.305 µM. For the same compound, the TGI [3] was 1.09 µM, the GI50 [4] was 0.278 µM and the TGI [4] was 1.12 µM. It also gave a GI50 [5] of 0.317 µM, a TGI [5] of 2.16 µM and a GI50 [6] of 0.35 µM. The TGI [6] was 2.34 µM, the GI50 [10] was 0.349 µM and the TGI [10] was 2.21 µM. The GI50 [8] was 0.484 µM, the TGI [8] was 2.72 µM and the GI50 [9] was 0.409 µM. The TGI [9] was 3.75 µM.

CCSc1ncnc2c(C3OC(CO)C(O)C3O)nsc12 (configuration not stated) was tested, and the TGI [2] was over 100 µM, the TGI [3] was over 100 µM and the TGI [4] was over 100 µM. It also gave a TGI [5] of over 100 µM, a TGI [6] of over 100 µM and a TGI [10] of over 100 µM. It also gave a TGI [7] of over 100 µM, a TGI [8] of over 100 µM and a TGI [9] of over 100 µM.

Work on CCOC(=O)c1c(SC(=O)c2cc(OC)c(OC)c(OC)c2)n(-c2ccccc2)c(=S)n(-c2ccccc2)c1=O yielded a TGI [1] of over 100 µM, a TGI [2] of over 100 µM and a TGI [3] of over 100 µM. For the same compound, the TGI [4] was over 100 µM, the TGI [5] was over 100 µM and the TGI [6] was over 100 µM. The TGI [10] was over 100 µM, the TGI [8] was over 100 µM and the TGI [9] was over 100 µM.

For CC(=O)N1N=C(c2c(O)ccc3ccccc23)CC1C(=O)c1ccco1 (configuration not stated), the TGI [1] was over 100 µM, the TGI [2] was over 100 µM and the TGI [3] was over 100 µM. For the same compound, the TGI [4] was over 100 µM, the TGI [5] was over 100 µM and the TGI [10] was over 100 µM. The TGI [7] was 89.9 µM, the TGI [8] was over 100 µM and the TGI [9] was over 100 µM.

Compound CN(C(=O)C12C3C4(C(=O)O)C1(C(=O)N(C)C(C)(C)C)C1C2(C(=O)O)C3(C(=O)N(C)C(C)(C)C)C14C(=O)N(C)C(C)(C)C)C(C)(C)C (configuration not stated) has a TGI [1] of over 100 µM, a TGI [2] of over 100 µM and a TGI [3] of over 100 µM. The TGI [4] was over 100 µM, the TGI [5] was over 100 µM and the TGI [6] was over 100 µM. It also gave a TGI [10] of over 100 µM, a TGI [7] of over 100 µM and a TGI [8] of over 100 µM.
